Patent US8304447B2, “2-acylaminopropoanol-type glucosylceramide synthase inhibitors” (Genzyme Corporation, priority 2007, dated 2012)
Where two headings read alike, the source gives them in different places.

System: GM3
Assay: GM3 Elisa assay
Format: cell-based
Conditions: B16-FO cells, read-out: IC50_uM_Mean
Procedure, shortened: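 Cellular GM3 ELISA: fixed cells probed with monoclonal anti-GM3 (NeuAc), HRP-conjugated anti-IgM and fluorogenic Quantablu substrate, read at Ex 325/Em 420. Cells were B16-FO, treated 2 days after a 6 h attachment on collagen-coated wells.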

[1] = 48 h, Table 2, 2 days incubation
[2] = 48 h, Table 1, 2 days incubation

Row | Structure (SMILES) | IC50 (Table 3 (IC 50 Values)) | other results
1 | COc1ccc(C(=O)CCCCC(=O)N[C@H](CN2CC[C@H](O)C2)[C@H](O)c2ccc(OCCCCF)cc2)cc1 [Compound 495] | ≤ 100 nM | –
2 | COc1ccc(C(=O)CCCCC(=O)N[C@H](CN2CCCC2)[C@H](O)c2ccc(OC)cc2)cc1 [Compound 269] | – | IC50 [1]: ≤ 100 nM
3 | COc1ccc(OCCC(=O)N[C@H](CN2CCCC(C)C2)[C@H](O)c2ccc3c(c2)OCCO3)cc1 (some centres unmarked) [Compound 608] | 3000 to 10000 nM | –
4 | Cc1cccc(CC(=O)N[C@H](CN2CCCC2)[C@H](O)c2ccc3c(c2)OCCO3)c1 [Compound 36, N-((1R,2R)-1-(2,3-dihydrobenzo[b][1,4]dioxin-6-yl)-1-hydroxy-3-(pyrrolidin-1-yl)propan-2-yl)-2-m-tolylacetamide] | – | IC50 [2]: 100 to 1000 nM
5 | O=C(CCCCOC1CCOCC1)N[C@H](CN1CC[C@@H](F)C1)[C@H](O)c1ccc(OCc2ccccc2)cc1 [Compound 575] | 100 to 1000 nM | –
6 | COc1ccc(C(=O)CCCCCC(=O)N[C@H](CN2CCCC2)[C@H](O)/C=C/c2ccccc2)cc1 [Compound 394] | 1000 to 3000 nM | –
7 | COc1ccc(C(=O)CCCCC(=O)N[C@H](CN2CCCC2)[C@H](O)/C=C/c2ccccc2)cc1 [Compound 395] | 3000 to 10000 nM | –
8 | CCCOC1CN(C[C@@H](NC(=O)CCCCCC(=O)c2ccc(OC)cc2)[C@H](O)c2ccc3c(c2)OCCO3)C1 [Compound 604] | 3000 to 10000 nM | –
9 | COc1ccc(C(=O)CCCCC(=O)N[C@H](CN2CCCC2)[C@H](O)c2ccc(OCCCC(F)(F)F)cc2)cc1 [Compound 432] | ≤ 100 nM | –
10 | CCCCCCCC(=O)N[C@H](CN1CC[C@H](c2ccccc2)C1)[C@H](O)c1ccc2c(c1)OCCO2 [Compound 506] | 3000 to 10000 nM | –
11 | CCCCOc1ccc([C@@H](O)[C@@H](CN2CC[C@H](O)C2)NC(=O)CCCCCOCCF)cc1 [Compound 661] | 1000 to 3000 nM | –
12 | COc1ccc(C(=O)CCCCCC(=O)N[C@H](CCN2CCCC2)[C@H](O)c2ccc3c(c2)OCCO3)cc1 [Compound 688] | 3000 to 10000 nM | –
13 | COc1ccc(C(=O)CCCCCC(=O)N[C@H](CN2CCC2)[C@H](O)c2ccc3c(c2)OCCO3)cc1 [Compound 603] | 100 to 1000 nM | –
14 | O=C(CCOc1ccccc1)N[C@H](CN1CCCC1)[C@H](O)c1ccc2c(c1)OCCO2 [Compound 27, N-((1R,2R)-1-(2,3-dihydrobenzo[β][1,4]dioxin-6-yl)-1-hydroxy-3-(pyrrolidin-1-yl)propan-2-yl)-3-phenoxypropanamide] | – | IC50 [2]: ≤ 100 nM
15 | COCCOc1ccc(C(=O)CCCCC(=O)N[C@H](CN2CCCC2)[C@H](O)c2ccc3c(c2)OCCO3)cc1 [Compound 450] | ≤ 100 nM | –
16 | COc1ccc(S(=O)(=O)CCCCCC(=O)N[C@H](CN2CC[C@@H](F)C2)[C@H](O)c2ccc3c(c2)OCCO3)cc1 [Compound 564] | 100 to 1000 nM | –
17 | COc1ccc(OCCC(=O)N[C@@H](CN2CCCC2)[C@@H](O)c2ccc3c(c2)OCCO3)cc1 [Compound 674] | 3000 to 10000 nM | –
18 | COc1ccc(C(=O)CCCCCC(=O)N[C@H](CN2CC[C@@H](O)C2)[C@H](O)c2ccc3c(c2)OCCO3)cc1 [Compound 518] | 100 to 1000 nM | –
19 | Cc1ccc(OCCC(=O)N[C@H](CN2CC[C@@H](F)C2)[C@H](O)c2ccc(OCCCCF)cc2)cc1 [Compound 739] | ≤ 100 nM | –
20 | COc1ccc(OCCC(=O)N(CC(=O)c2ccc(OC)cc2)[C@H](CN2CCCC2)[C@H](O)c2ccc(O)cc2)cc1 [Compound 715] | 3000 to 10000 nM | –
21 | COc1ccc(C(=O)CCCCCC(=O)N[C@H](CN2CC[C@H](O)C2)[C@H](O)c2ccc3c(c2)OCCO3)cc1 [Compound 532] | ≤ 100 nM | –

Row | Structure (SMILES) | IC50 (Table 3 (IC 50 Values)) | other results
22 | COc1ccc([C@@H](O)[C@@H](CN2CCCC2)NC(=O)CCCCCC(C)(C)OC)cc1 [Compound 273] | – | IC50 [1]: 100 to 1000 nM
23 | COc1ccc([C@@H](O)[C@@H](CN2CCCC2)NC(=O)CCOc2ccc(C)cc2)cc1 [Compound 247, N-((1R,2R)-1-hydroxy-1-(4-methoxyphenyl)-3-(pyrrolidin-1-yl)propan-2-yl)-3-(p-tolyloxy)propanamide] | – | IC50 [1]: ≤ 100 nM
24 | O=C(CCC1CCOCC1)N[C@H](CN1CCCC1)[C@H](O)c1ccc2c(c1)OCCO2 [Compound 582] | 3000 to 10000 nM | –
25 | O=C(CCCS(=O)(=O)C1CCCCC1)N[C@H](CN1CC[C@@H](F)C1)[C@H](O)c1ccc(OCc2ccccc2)cc1 [Compound 577] | 100 to 1000 nM | –
26 | COc1ccc(OCCC(=O)N[C@H](CN2CCCC2(C)C)[C@H](O)c2ccc3c(c2)OCCO3)cc1 [Compound 551] | 3000 to 10000 nM | –
27 | O=C(CCCCS(=O)(=O)C12CC3CC(CC(C3)C1)C2)N[C@H](CN1CCCC1)[C@H](O)c1ccc2c(c1)OCCO2 [Compound 560] | 100 to 1000 nM | –
28 | COc1ccc(C(=O)CCCCC(=O)N[C@H](CN2CCCC2)[C@H](O)c2ccc(OCCCCC(C)C)cc2)cc1 [Compound 436] | ≤ 100 nM | –
29 | CCCCCCCCCCCCCCCC(=O)N[C@H](CN(C)Cc1ccco1)[C@H](O)c1ccc2c(c1)OCCO2 [Compound 683] | 3000 to 10000 nM | –
30 | O=C(CCCCCCOCC(F)(F)F)N[C@H](CN1CCCC1)[C@H](O)c1ccc2c(c1)OCCO2 [Compound 634] | 100 to 1000 nM | –
31 | COc1ccc(OCCC(=O)N[C@H](CN2[C@H](C)CC[C@H]2C)[C@H](O)c2ccc3c(c2)OCCO3)cc1 [Compound 550] | 3000 to 10000 nM | –
32 | COc1ccc(C(=O)CCCCC(=O)N[C@H](CN2CCCC2)[C@H](O)c2sccc2C)cc1 [Compound 362] | 3000 to 10000 nM | –
33 | CCCCCCOc1ccc([C@@H](O)[C@@H](CN2CCCC2)NC(=O)CCCOc2ccc(C(C)=O)cc2)cc1 [Compound 727] | ≤ 100 nM | –
34 | O=C(CCCCCS(=O)(=O)C1CCCCC1)N[C@H](CN1CCCC1)[C@H](O)c1ccc2c(c1)OCCO2 [Compound 562] | 100 to 1000 nM | –
35 | O=C(CSCc1ccccc1)N[C@H](CN1CCCC1)[C@H](O)c1ccc2c(c1)OCCO2 [Compound 39, 2-(benzylthio)-N-((1R,2R)-1-(2,3-dihydrobenzo[β][1,4]dioxin-6-yl)-1-hydroxy-3-(pyrrolidin-1-yl)propan-2-yl)acetamide] | – | IC50 [2]: ≤ 100 nM
36 | CCCN(C)C[C@H](NC(=O)CCCCCC(=O)c1ccc(OC)cc1)[C@@H](O)c1ccc2c(c1)OCCO2 [Compound 470] | 100 to 1000 nM | –
37 | O=C(COc1ccc(Cl)cc1)N[C@H](CN1CCCC1)[C@H](O)c1ccc2c(c1)OCCO2 [Compound 83, 2-(4-chlorophenoxy)-N-((1R,2R)-1-(2,3-dihydrobenzo[β][1,4]dioxin-6-yl)-1-hydroxy-3-(pyrrolidin-1-yl)propan-2-yl)acetamide] | – | IC50 [2]: ≤ 100 nM
38 | O=C(NCCc1cccs1)N[C@H](CN1CCCC1)[C@H](O)c1ccc2c(c1)OCCO2 [Compound 287, 1-((1R,2R)-1-(2,3-dihydrobenzo[β][1,4]dioxin-6-yl)-1-hydroxy-3-(pyrrolidin-1-yl)propan-2-yl)-3-(2-(thiophen-2-yl)ethyl)urea] | – | IC50 [1]: 1000 to 3000 nM
39 | COc1ccc(C(=O)CCCCC(=O)N[C@H](CN2CCCC2)[C@H](O)c2ccc(OCCCOc3cccc(C)c3)cc2)cc1 [Compound 437] | ≤ 100 nM | –
40 | O=C(NCc1ccc(Cl)cc1)N[C@H](CN1CCCC1CN1CCCC1)[C@H](O)c1ccc2c(c1)OCCO2 (some centres unmarked) [Compound 244] | – | IC50 [1]: ≤ 100 nM
41 | COc1ccc(C(=O)CCCCCC(=O)N[C@H](CN2CCCC2)[C@H](O)c2ccc(OC)cc2)cc1 [Compound 285, 7-(4-Methoxy-phenyl)-7-oxo-heptanoic acid [2-hydroxy-2-(4-methoxy-phenyl)-1-pyrrolidin-1-ylmethyl-ethyl]-amide] | – | IC50 [1]: ≤ 100 nM
